{"source": "patent US5663186A", "about": "“Treatment of atherosclerosis with angiotensin II receptor blocking imidazoles” (Merck & Co., Inc., priority 1995, dated 1997)", "key": {"AII": {"system": "AII", "details": "cited from earlier work"}, "dogs": {"system": "dogs", "details": "cited from earlier work"}, "conscious dogs": {"system": "conscious dogs", "assay": "Hypotensive effects and inhibition of AII pressor response before and after furosemide in conscious dogs", "format": "in vivo, dog"}, "Renal Hypertensives Rats": {"system": "Renal Hypertensives Rats", "assay": "Antihypertensive effects in renal hypertensive rats (left renal artery ligation)", "format": "in vivo, rat", "description": "This procedure increases blood pressure by increasing renin production with consequent elevation of AII levels. Compounds are administered orally at 100 mg/kg and/or intravenously via a cannula in the jugular vein at 10 mg/kg. Arterial blood pressure is continuously measured directly through a carotid artery cannula and recorded using a pressure transducer and a polygraph. Blood pressure levels after treatment are compared to pretreatment levels to determine the antihypertensive effects of the compounds (See Table 1).\nCompound listed in Table 2 was tested in the same manner as described for Table 1, except that in the test for antihypertensive effects in renal hypertensive rats, the compounds were administered orally at 30 mg/kg and intravenously at 3 mg/kg."}}, "note": "Counter-ions that a name gives are not always drawn."}
{"smiles": "CNCC(=O)N[C@@H](CCCN=C(N)N)C(=O)N[C@H](C(=O)N[C@@H](Cc1ccc(O)cc1)C(=O)N[C@H](C(=O)N[C@@H](Cc1cnc[nH]1)C(=O)N1CCC[C@H]1C(=O)N[C@@H](C)C(=O)O)C(C)C)C(C)C", "note": "[Saralasin, [Sar^1, Ala^8] AII]", "values": [{"measurement": "lowering of arterial pressure", "setting": "AII; mammals and man, when the (elevated) pressure is dependent on circulating AII", "result": "lower arterial pressure in mammals and man"}, {"measurement": "oral effectiveness", "setting": "AII; oral doses", "result": "oral doses being ineffective"}, {"measurement": "duration of pharmacological effects", "setting": "AII; parenteral administration", "result": "relatively short-lasting"}, {"measurement": "antagonism of the actions of AII", "setting": "AII; pithed rats", "result": "one of the most potent competitive antagonists of the actions of AII"}, {"measurement": "agonistic (pressor) effects", "setting": "AII; when the pressure is not sustained by AII", "result": "generally elicits pressor effects when the pressure is not sustained by AII"}, {"measurement": "effect on renal vasoconstrictor effect of indomethacin and meclofenamate", "setting": "dogs; dogs", "result": "inhibit the renal vasoconstrictor effect of indomethacin and meclofenamate"}]}
{"smiles": "C[C@H](CS)C(=O)N1CCC[C@H]1C(=O)O", "note": "[captopril]", "values": [{"measurement": "effect on renal vasoconstrictor effect of indomethacin", "setting": "dogs; dogs with non-hypotensive hemorrhage", "result": "reverse the renal vasoconstrictor effect of indomethacin"}]}
{"smiles": "CCCCc1nc(Cl)c(CO)n1Cc1ccc(-c2ccccc2-c2nnn[nH]2)cc1", "note": "[2-butyl-4-chloro-1-[2'-(1H-tetrazol-5-yl)biphenyl-4-yl)methyl]-5-hydroxymethylimidazole sodium salt]", "values": [{"measurement": "inhibition of pressor response to AII after furosemide", "setting": "conscious dogs; furosemide-treated dogs, cumulative iv", "result": "inhibited the pressor response to AII at the two higher doses"}, {"measurement": "decrease in blood pressure after furosemide", "setting": "conscious dogs; furosemide-treated dogs, cumulative iv 0.3 to 3 mg/kg", "result": "significant decrease in blood pressure in a dose-dependent manner"}, {"measurement": "blood pressure lowering", "setting": "conscious dogs; normotensive conscious dogs (n=4), cumulative iv 0.3 to 3 mg/kg, before furosemide", "result": "did not lower blood pressure"}, {"measurement": "inhibition of pressor response to AII", "setting": "conscious dogs; normotensive conscious dogs, cumulative iv 0.3 to 3 mg/kg, AII 0.1 μg/kg iv, 10 min post dose, before furosemide", "result": "effective in inhibiting the pressor response to AII"}]}
{"smiles": "CCCCc1nc(Cl)c(C(=O)O)n1Cc1ccc(-c2ccccc2-c2nnn[nH]2)cc1", "note": "[Compound 2, 2-n-butyl-4-chloro-1-[(2'-(tetrazol-5-yl)-1,1'-biphenyl-4-yl)-methyl]-1H-imidazole-5-carboxylic acid]", "values": [{"measurement": "Antihypertensive Effects in Renal Hypertensives Rats, Intravenous Activity", "setting": "Renal Hypertensives Rats; intravenous, 3.0 mg/kg or less", "result": "+ (Significant decrease in blood pressure at 3.0 mg/kg or less)"}, {"measurement": "Antihypertensive Effects in Renal Hypertensives Rats, Oral Activity", "setting": "Renal Hypertensives Rats; oral, 30 mg/kg or less", "result": "+ (Significant decrease in blood pressure at 30 mg/kg or less)"}]}
{"smiles": "NS(=O)(=O)c1cc(C(=O)O)c(NCc2ccco2)cc1Cl", "note": "[furosemide, reference compound]", "values": [{"measurement": "Plasma renin activity (PRA)", "setting": "conscious dogs; dogs (three), furosemide 10 mg/kg im at 18 and 2 hours before, PRA four days earlier 1.5±0.5", "result": "19.9±7.2", "unit": "ng AI/ml/hr"}]}
